Data from patent US20110039762A1, “TARGETED ANTIMICROBIAL MOIETIES” (C3 JIAN, INC., priority 2009, published 2011).
Entries after “also recorded” stand apart in the source; their conditions may differ.

Assays:
microorganisms = assay: Peptides having multiple activities (targeting/binding, antimicrobial, growth or phenotype altering)
Source text: In certain embodiments, peptides described herein can have multiple activities. Thus for example, a peptide can have both binding/targeting activity and antimicrobial activity. Such peptides can be used, e.g., in a chimeric construct, for any or all of these properties. Thus, for example, a peptide designated “B” in Table 8 can be used as a targeting peptide. If it is also designated G or M it can also be used for antimicrobial activity.

S. mutans = assay: Kill or inhibit growth/proliferation; morphology, biofilm and growth disruption (Tables 5, 6); type: cell-based, Streptococcus mutans; design: key: A: Peptide aggregates; B: Less hyphal formation; Clumps; Diffuse clumps and small polyps; F: Diffuse growth; H: Thin; I: Growth inhibition; Microcolony formation; Rippled; Small polyps; Thick; W: Halo formation on top, microlonies on bottom; note: test concentration or dose not given here
P. gingivalis = assay: as above; type: cell-based, Porphyromonas gingivalis; design: key: A: Peptide aggregates; B: Less hyphal formation; Clumps; Diffuse clumps and small polyps; F: Diffuse growth; H: Thin; I: Growth inhibition; Microcolony formation; Rippled; Small polyps; Thick; W: Halo formation on top, microlonies on bottom
F. nucleatum = assay: as above; type: cell-based, Fusobacterium nucleatum; design: key: A: Peptide aggregates; B: Less hyphal formation; Clumps; Diffuse clumps and small polyps; F: Diffuse growth; H: Thin; I: Growth inhibition; Microcolony formation; Rippled; Small polyps; Thick; W: Halo formation on top, microlonies on bottom; note: test concentration or dose not given here
[1] = system: microorganisms (e.g., bacteria, yeasts, fungi); assay: Targeting peptide binding to target microorganisms (Table 3); conditions: peptide binding in aqueous buffers varied by peptide solubility; preferably 1x PBS
Throughout, for Organism, effect (morphology, biofilm and growth disruption): test concentration or dose not given here.

Row | Substance | Activities (microorganisms) | Organism, effect (morphology, biofilm and growth disruption) (S. mutans) | Organism, effect (morphology, biofilm and growth disruption) (P. gingivalis) | Organism, effect (morphology, biofilm and growth disruption) (F. nucleatum) | Target(s) (microorganisms bound by the targeting peptide) [1]
1 | PF-C088: peptide having multiple activities (DIANNILNSVSERLIIA; Peptide with targeting and/or antimicrobial activity) | G B | S. mutans (I) | P. gingivalis (R) | F. nucleatum (H) | A. naeslundii; also recorded: F. nucleatum; also recorded: P. gingivalis; also recorded: S. mutans; also recorded: T. denticola
2 | PF-C075: peptide having multiple activities (KALVISVFAIVFSIIFVKFFYWRDKK; Peptide with targeting and/or antimicrobial activity) | G B | S. mutans (F) | P. gingivalis (R) | F. nucleatum (T) | A. naeslundii; also recorded: F. nucleatum; also recorded: P. gingivalis; also recorded: S. mutans; also recorded: T. denticola
3 | PF-C084: peptide having multiple activities (FFSVIFLFGLNYLICNSPLFNILR; Peptide with targeting and/or antimicrobial activity) | G B | S. mutans (F) | P. gingivalis (R) | F. nucleatum (T) | A. naeslundii; also recorded: F. nucleatum; also recorded: P. gingivalis; also recorded: S. mutans
4 | NTNDLLQAFELMGLGMAGVFIVLGILYIVAELLIKIFPVNN [PF-C194] | G B | S. mutans (F) | P. gingivalis (T) | F. nucleatum (T) | A. naeslundii; also recorded: F. nucleatum; also recorded: P. gingivalis; also recorded: S. mutans; also recorded: T. denticola
